Test results reported in US11358936B2, “Lysyl oxidase-like 2 inhibitors and uses thereof” (PharmAkea, Inc., priority 2015, dated 2022).
Structures can show the parent of a compound that is named as a salt.

Biological target: human LOXL2 (Homo sapiens (Human), UniProt Q9Y4K0)
Assay: Human LOXL2 Amine Oxidase Activity Assay (Amplex Red fluorescence)
Type: biochemical
Settings: concentrated conditioned media from CHO cells stably expressing human LOXL2; 2 h at 37° C. preincubation; DAP substrate; read-out: IC50
Method: LOXL2 amine oxidase activity is evaluated by measuring Amplex Red fluorescence using 10-20× concentrated conditioned media from CHO cells stably expressing human LOXL2. To assay for amine oxidase activity, 10 μL of the concentrated conditioned media is incubated with 2 μL of test compound in DMSO and 73 μL Assay Buffer (50 mM Borate Buffer, pH8) for 2 h at 37° C. After the 2 h incubation, 5 μl of 10 mM 1,5-Diaminopentane (DAP) diluted in Assay Buffer and 10 μl of Amplex Red Mix (8.5 μl Assay Buffer+0.5 μl of 10 mM Amplex Red+1 μl of 500 U/ml Horseradish Peroxidase) are added and the plate mixed and immediately placed on the FlexStaion for fluorescence measurements. Fluorescence is read in kinetic mode every 2 min for 1 hour at excitation=544 and emission=590. The amine oxidase activity is calculated from the slope of the linear portion of the curve.

Chain of human LOXL2 (Q9Y4K0 26-774): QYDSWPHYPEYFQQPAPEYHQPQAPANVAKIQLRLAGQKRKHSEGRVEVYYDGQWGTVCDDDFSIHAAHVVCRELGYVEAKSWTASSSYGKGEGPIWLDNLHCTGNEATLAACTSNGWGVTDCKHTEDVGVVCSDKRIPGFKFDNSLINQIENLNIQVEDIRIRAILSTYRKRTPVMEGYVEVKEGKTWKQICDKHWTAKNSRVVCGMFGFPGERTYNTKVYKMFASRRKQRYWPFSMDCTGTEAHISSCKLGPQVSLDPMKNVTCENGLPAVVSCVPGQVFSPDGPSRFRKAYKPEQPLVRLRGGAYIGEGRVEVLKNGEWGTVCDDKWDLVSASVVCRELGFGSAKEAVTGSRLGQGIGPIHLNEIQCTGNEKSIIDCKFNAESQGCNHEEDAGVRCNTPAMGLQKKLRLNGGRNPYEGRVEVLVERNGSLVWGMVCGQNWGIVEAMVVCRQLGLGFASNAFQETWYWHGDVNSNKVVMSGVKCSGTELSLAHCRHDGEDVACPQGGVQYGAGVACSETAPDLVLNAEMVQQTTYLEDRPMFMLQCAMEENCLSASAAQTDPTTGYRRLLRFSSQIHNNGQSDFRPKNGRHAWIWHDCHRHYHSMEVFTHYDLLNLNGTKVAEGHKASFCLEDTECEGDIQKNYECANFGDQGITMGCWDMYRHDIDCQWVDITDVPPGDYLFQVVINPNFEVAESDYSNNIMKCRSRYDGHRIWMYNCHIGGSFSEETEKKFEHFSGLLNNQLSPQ

| SMILES | IC50 [nM] |
| --- | --- |
| NCc1ccnc(Oc2cccc(C(=O)NCc3cccc(C(=O)O)c3)c2)c1 [Compound 1-35, 3-((3-((4-Aminomethyl)pyridin-2-yl)oxy)benzamido)methyl)benzoic acid hydrochloride] | < 300 |
| NCc1ccnc(Oc2cccc(C(=O)N[C@@H](CO)c3ccccc3)c2)c1 [Compound 1-36, (R)-3-((4-Aminomethyl)pyridin-2-yl)oxy)-N-(2-hydroxy-1-phenylethyl)benzamide hydrochloride] | < 300 |
| NCc1ccnc(Oc2cccc(C(=O)NCc3ccc(-n4ccnc4)c(F)c3)c2)c1 [Compound 1-37, 3-((4-(Aminomethyl)pyridin-2-yl)oxy)-N-(3-fluoro-4-(1H-imidazol-1-yl)benzyl)benzamide dihydrochloride] | < 300 |
| N=C(N)c1cccc(CNC(=O)c2cccc(Oc3cc(CN)ccn3)c2)c1 [Compound 1-39, 3-((4-(Aminomethyl)pyridin-2-yl)oxy)-N-(3-carbamimidoylbenzyl)benzamide dihydrochloride] | < 300 |
| NCc1ccnc(Oc2cccc(C(=O)NCCc3ccccc3)c2)c1 [Compound 1-40, 3-((4-(Aminomethyl)pyridin-2-yl)oxy)-N-phenethylbenzamide hydrochloride] | < 300 |
| NCc1ccnc(Oc2cccc(C(=O)N3CCc4ccccc4C3)c2)c1 [Compound 1-41, (3-((4-(Aminomethyl)pyridin-2-yl)oxy)phenyl)(3,4-dihydroisoquinolin-2(1H)-yl)methanone trifluoroacetate] | < 300 |
| NCc1ccnc(Oc2cccc(C(=O)NCc3cc4ccccc4s3)c2)c1 [Compound 1-42, 3-((4-(Aminomethyl)pyridin-2-yl)oxy)-N-(benzo[b]thiophen-2-ylmethyl)benzamide hydrochloride] | < 300 |
| NCc1ccnc(Oc2cccc(C(=O)NCc3cnccn3)c2)c1 [Compound 1-43, 3-((4-(Aminomethyl)pyridin-2-yl)oxy)-N-(pyrazin-2-ylmethyl)benzamide hydrochloride] | < 300 |
| CCCCCCCCCCCCCNC(=O)c1cccc(Oc2cc(CN)ccn2)c1 [Compound 1-44, 3-((4-(Aminomethyl)pyridin-2-yl)oxy)-N-tridecylbenzamide hydrochloride] | < 300 |
| NCc1ccnc(OCc2cccc(C(=O)Nc3ccccc3)c2)c1 [Compound 1-45, 3-(((4-(Aminomethyl)pyridin-2-yl)oxy)methyl)-N-phenylbenzamide hydrochloride] | < 300 |
| NCc1ccnc(-c2cccnc2)c1 [Compound 2-3, [2,3′-Bipyridin]-4-ylmethanamine] | < 300 |
| NCc1ccnc(-c2ccc(F)cc2)c1 [Compound 2-4, (2-(4-Fluorophenyl)pyridin-4-yl)methanamine] | < 300 |
| NCc1ccnc(-c2cccc(C(=O)O)c2)c1 [Compound 2-5, hydrochloride] | 300 to 1000 |
| NCc1ccnc(-c2ccc(C(=O)O)cc2)c1 [Compound 2-6, 4-(4-Aminomethyl)pyridin-2-yl)benzoic acid trifluoroacetate] | 300 to 1000 |
| NCc1ccnc(Oc2cccc(Oc3ccccc3)c2)c1 [Compound 2-8, (2-(3-Phenoxyphenoxy)pyridin-4-yl)methanamine] | < 300 |
| NCc1ccnc(Oc2ccc(C(=O)O)cc2)c1 [Compound 2-9, 4-((4-(Aminomethyl)pyridin-2-yl)oxy)benzoic acid hydrochloride] | 300 to 1000 |

| SMILES | IC50 [nM] |
| --- | --- |
| NCc1ccnc(Oc2cccc3c2ccn3Cc2ccccc2)c1 [Compound 2-10, (2-((1-Benzyl-1H-indol-4-yl)oxy)pyridin-4-yl)methanamine hydrochloride] | < 300 |
| Cc1cc2c(Oc3cc(CN)ccn3)cccc2n1Cc1ccc(F)cc1F [Compound 2-11, (2-((1-(2,4-Difluorobenzyl)-2-methyl-1H-indol-4-yl)oxy)pyridin-4-yl)methanamine trifluoroacetate] | < 300 |
| Cc1cn(Cc2ccc(F)cc2F)c2cccc(Oc3cc(CN)ccn3)c12 [Compound 2-12, (2-((1-(2,4-Difluorobenzyl)-3-methyl-1H-indol-4-yl)oxy)pyridin-4-yl)methanamine trifluoroacetate] | < 300 |
| COc1ccc(Cn2c(C)cc3c(Oc4cc(CN)ccn4)cccc32)cn1 [Compound 2-13, (2-((1-((6-Methoxypyridin-3-yl)methyl)-2-methyl-1H-indol-4-yl)oxy)pyridin-4-yl)methanamine trifluoroacetate] | < 300 |
| COc1ccc(Cn2cc(C)c3c(Oc4cc(CN)ccn4)cccc32)cn1 [Compound 2-14, (2-((1-((6-Methoxypyridin-3-yl)methyl)-3-methyl-1H-indol-4-yl)oxy)pyridin-4-yl)methanamine trifluoroacetate] | < 300 |
| NCc1ccnc(Oc2cccc3c2ccn3Cc2ccc(F)cn2)c1 [Compound 2-15, (2-((1-((5-Fluoropyridin-2-yl)methyl)-1H-indol-4-yl)oxy)pyridin-4-yl) methanamine hydrochloride] | < 300 |
| NCc1ccnc(Oc2cccc3c2ccn3Cc2ccc3ccccc3n2)c1 [Compound 2-16, (2-((1-(Quinolin-2-ylmethyl)-1H-indol-4-yl)oxy)pyridin-4-yl)methanamine hydrochloride] | < 300 |
| NCc1ccnc(Oc2cccc3c2ccn3Cc2cnc(C(F)(F)F)s2)c1 [Compound 2-17, (2-((1-((2-(Trifluoromethyl)thiazol-5-yl)methyl)-1H-indol-4-yl)oxy)pyridin-4-ylmethanamine hydrochloride] | < 300 |
| NCc1ccnc(Oc2cccc3c2ccn3-c2ccc(F)cc2)c1 [Compound 2-18, (2-((1-(4-Fluorophenyl)-1H-indol-4-yl)oxy)pyridin-4-yl)methanamine hydrochloride] | < 300 |
| Cn1cc(-n2ccc3c(Oc4cc(CN)ccn4)cccc32)cn1 [Compound 2-19, (2-((1-(1-Methyl-1H-pyrazol-4-yl)-1H-indol-4-yl)oxy)pyridin-4-yl)methanamine hydrochloride] | < 300 |
| COc1ccc(-n2ccc3c(Oc4cc(CN)ccn4)cccc32)cn1 [Compound 2-20, (2-((1-(6-Methoxypyridin-3-yl)-1H-indol-4-yl)oxy)pyridin-4-yl)methanamine hydrochloride] | < 300 |
| NCc1ccnc(Oc2cccc3c2ccn3-c2nc3ccc(F)cc3s2)c1 [Compound 2-21, (2-((1-(6-Fluorobenzo[d]thiazol-2-yl)-1H-indol-4-yl)oxy)pyridin-4-yl)methanamine hydrochloride] | < 300 |
| NCc1ccnc(Oc2cccc3c2ccn3CCc2ccc(F)cc2)c1 [Compound 2-22, (2-((1-(4-Fluorophenethyl)-1H-indol-4-yl)oxy)pyridin-4-yl)methanamine hydrochloride] | < 300 |
| NCc1ccnc(Oc2cccc3c2c(Br)cn3CCc2ccc(F)cc2)c1 [Compound 2-23, (2-((3-Bromo-1-(4-fluorophenethyl)-1H-indol-4-yl)oxy)pyridin-4-yl)methanamine hydrochloride] | < 300 |
| NCc1ccnc(Oc2cccc3c2ccn3C(=O)c2ccccc2)c1 [Compound 2-24, (4-((4-(Aminomethyl)pyridin-2-yl)oxy)-1H-indol-1-yl)(phenyl)methanone hydrochloride] | < 300 |
| NCc1ccnc(Oc2cccc3c2ccn3C(=O)Nc2ccccc2)c1 [Compound 2-25, 4-((4-(Aminomethyl)pyridin-2-yl)oxy)-N-phenyl-1H-indole-1-carboxamide hydrochloride] | < 300 |
